{"source": "paper PMC5218480", "about": "(PLoS ONE, 2017)", "tested_on": "MV-4-11 cells", "test": "Gene expression microarray analysis (Affymetrix PrimeView) and GSEA", "format": "cell-based, human", "parameters": "RFU PODN (11730768_x_at) / Fold change /veh PODN (11730768_x_at) / RFU LINC00158 (11744669_a_at) / Fold change /veh LINC00158 (11744669_a_at) / RFU DUSP10 (11751237_a_at) / Fold change /veh DUSP10 (11751237_a_at) / RFU ID3 (11757404_x_at) / Fold change /veh ID3 (11757404_x_at) / RFU PLEKHG5 (11737974_s_at) / Fold change /veh PLEKHG5 (11737974_s_at) / RFU LRRC4B (11730491_at) / Fold change /veh LRRC4B (11730491_at) / RFU GIMAP4 (11747438_a_at) / Fold change /veh GIMAP4 (11747438_a_at) / RFU KRT8 (11758183_x_at) / Fold change /veh KRT8 (11758183_x_at) / RFU CNN1 (11734310_a_at) / Fold change /veh CNN1 (11734310_a_at) / RFU VPS37D (11726825_at) / Fold change /veh VPS37D (11726825_at) / RFU C10orf10 (11716522_x_at) / Fold change /veh C10orf10 (11716522_x_at) / RFU KIR2DL2 /// KIR2DL4 /// KIR2DL5A /// KIR2DL5B /// KIR2DS1 /// KIR2DS2 /// KIR2DS3 /// KIR2DS4 /// KIR3DL3 /// KIR3DL3 /// KIR3DS1 (11738374_at) / Fold change /veh KIR2DL2 /// KIR2DL4 /// KIR2DL5A /// KIR2DL5B /// KIR2DS1 /// KIR2DS2 /// KIR2DS3 /// KIR2DS4 /// KIR3DL3 /// KIR3DL3 /// KIR3DS1 (11738374_at) / RFU C1QL1 (11718748_at) / Fold change /veh C1QL1 (11718748_at) / RFU TMPRSS4 (11747572_a_at) / Fold change /veh TMPRSS4 (11747572_a_at) / RFU HAMP (11756126_x_at) / Fold change /veh HAMP (11756126_x_at) / RFU RNFT2 (11725882_a_at) / Fold change /veh RNFT2 (11725882_a_at) / RFU NR4A2 (11747474_a_at) / Fold change /veh NR4A2 (11747474_a_at) / RFU ABCC12 (11746883_a_at) / Fold change /veh ABCC12 (11746883_a_at) / RFU TMEM136 (11760407_x_at) / Fold change /veh TMEM136 (11760407_x_at) / RFU CLDN22 /// WWC2 (11732394_at) / Fold change /veh CLDN22 /// WWC2 (11732394_at) / RFU HLA-DPB1 (11760878_x_at) / Fold change /veh HLA-DPB1 (11760878_x_at) / RFU SPINT1 (11716480_a_at) / Fold change /veh SPINT1 (11716480_a_at) / RFU GAP43 (11754022_s_at) / Fold change /veh GAP43 (11754022_s_at) / RFU A4GNT (11735810_at) / Fold change /veh A4GNT (11735810_at) / RFU PRB3 (11715151_x_at) / Fold change /veh PRB3 (11715151_x_at) / RFU TUBB4B (11761932_at) / Fold change /veh TUBB4B (11761932_at) / RFU CAPN14 (11732068_a_at) / Fold change /veh CAPN14 (11732068_a_at) / RFU TMCC2 (11721928_a_at) / Fold change /veh TMCC2 (11721928_a_at) / RFU IRGQ (11745062_a_at) / Fold change /veh IRGQ (11745062_a_at) / RFU FAM174B (11720279_a_at) / Fold change /veh FAM174B (11720279_a_at) / RFU TMPRSS4 (11748680_a_at) / Fold change /veh TMPRSS4 (11748680_a_at) / RFU FAM212B (11763350_a_at) / Fold change /veh FAM212B (11763350_a_at) / RFU PLEKHG5 (11743358_a_at) / Fold change /veh PLEKHG5 (11743358_a_at) / RFU ZSCAN30 (11745921_a_at) / Fold change /veh ZSCAN30 (11745921_a_at) / RFU CMKLR1 (11741424_a_at) / Fold change /veh CMKLR1 (11741424_a_at) / RFU LOC101060620 /// MAPK8IP1 (11723275_at) / Fold change /veh LOC101060620 /// MAPK8IP1 (11723275_at) / RFU SPTSSB (11747773_x_at) / Fold change /veh SPTSSB (11747773_x_at) / RFU PRSS12 (11739890_at) / Fold change /veh PRSS12 (11739890_at) / RFU BIN1 (11741810_x_at) / Fold change /veh BIN1 (11741810_x_at) / RFU WNT11 (11732464_a_at) / Fold change /veh WNT11 (11732464_a_at) / RFU C10orf10 (11716521_a_at) / Fold change /veh C10orf10 (11716521_a_at) / RFU C5orf56 (11738089_at) / Fold change /veh C5orf56 (11738089_at) / RFU CYB561 (11721691_x_at) / Fold change /veh CYB561 (11721691_x_at) / RFU ANKRD19P (11752326_a_at) / Fold change /veh ANKRD19P (11752326_a_at) / RFU OR2T12 /// OR2T33 /// OR2T8 (11738714_s_at) / Fold change /veh OR2T12 /// OR2T33 /// OR2T8 (11738714_s_at) / RFU VCAN (11748164_a_at) / Fold change /veh VCAN (11748164_a_at) / RFU JSRP1 (11732532_at) / Fold change /veh JSRP1 (11732532_at) / RFU KRTAP10-11 (11738290_x_at) / Fold change /veh KRTAP10-11 (11738290_x_at) / RFU MYO3A (11730013_a_at) / Fold change /veh MYO3A (11730013_a_at) / RFU EBF3 (11725865_a_at) / Fold change /veh EBF3 (11725865_a_at) / RFU CAMK2N1 (11719241_x_at) / Fold change /veh CAMK2N1 (11719241_x_at) / RFU C5orf56 (11738088_a_at) / Fold change /veh C5orf56 (11738088_a_at) / RFU OLFML3 (11715873_a_at) / Fold change /veh OLFML3 (11715873_a_at) / RFU LOC100653217 /// NTM (11731650_a_at) / Fold change /veh LOC100653217 /// NTM (11731650_a_at) / RFU MAPK11 (11762145_a_at) / Fold change /veh MAPK11 (11762145_a_at) / RFU FIZ1 (11724087_x_at) / Fold change /veh FIZ1 (11724087_x_at) / RFU OASL (11726364_x_at) / Fold change /veh OASL (11726364_x_at) / RFU SOX15 (11748057_x_at) / Fold change /veh SOX15 (11748057_x_at) / RFU CD79A (11719716_a_at) / Fold change /veh CD79A (11719716_a_at) / RFU HIST1H1D (11736915_at) / Fold change /veh HIST1H1D (11736915_at) / RFU CASKIN2 (11723855_a_at) / Fold change /veh CASKIN2 (11723855_a_at) / RFU LOC730098 (11760151_x_at) / Fold change /veh LOC730098 (11760151_x_at) / RFU OR4N2 (11742367_at) / Fold change /veh OR4N2 (11742367_at) / RFU PRRT2 (11749266_a_at) / Fold change /veh PRRT2 (11749266_a_at) / RFU SNX32 (11753110_a_at) / Fold change /veh SNX32 (11753110_a_at) / RFU CDHR5 (11726645_a_at) / Fold change /veh CDHR5 (11726645_a_at) / RFU RCAN1 (11760418_a_at) / Fold change /veh RCAN1 (11760418_a_at) / RFU FAM167A (11723789_a_at) / Fold change /veh FAM167A (11723789_a_at) / RFU FAM26E (11764081_at) / Fold change /veh FAM26E (11764081_at) / RFU ISYNA1 (11749810_s_at) / Fold change /veh ISYNA1 (11749810_s_at) / RFU ACY1 (11761880_at) / Fold change /veh ACY1 (11761880_at) / RFU 11764098_at / Fold change /veh 11764098_at / RFU SAMD14 (11745864_x_at) / Fold change /veh SAMD14 (11745864_x_at) / RFU NPB (11741838_a_at) / Fold change /veh NPB (11741838_a_at) / RFU TMPRSS6 (11731388_a_at) / Fold change /veh TMPRSS6 (11731388_a_at) / RFU KRTAP10-2 (11738614_at) / Fold change /veh KRTAP10-2 (11738614_at) / RFU ARHGAP8 /// PRR5-ARHGAP8 (11727945_x_at) / Fold change /veh ARHGAP8 /// PRR5-ARHGAP8 (11727945_x_at) / RFU KRTAP5-7 /// NADSYN1 (11734609_at) / Fold change /veh KRTAP5-7 /// NADSYN1 (11734609_at) / RFU RASL12 (11751679_a_at) / Fold change /veh RASL12 (11751679_a_at) / RFU CDKN2B (11736163_a_at) / Fold change /veh CDKN2B (11736163_a_at) / RFU PRF1 (11729649_at) / Fold change /veh PRF1 (11729649_at) / RFU, ZNF638 /// ZNF638-IT1 / Fold change vs veh, ZNF638 /// ZNF638-IT1 / RFU, PANK3 / Fold change vs veh, PANK3 / RFU, SH3YL1 / Fold change vs veh, SH3YL1 / RFU, ZEB2 / Fold change vs veh, ZEB2 / RFU, NRIP1 / Fold change vs veh, NRIP1 / RFU, PTTG1IP / Fold change vs veh, PTTG1IP / RFU, CAPN2 / Fold change vs veh, CAPN2 / RFU, MED14 / Fold change vs veh, MED14 / RFU, SNORA58 / Fold change vs veh, SNORA58 / RFU, C1orf63 / Fold change vs veh, C1orf63 / RFU, LRRFIP1 / Fold change vs veh, LRRFIP1 / RFU, NDUFAF7 / Fold change vs veh, NDUFAF7 / RFU, SLC12A2 / Fold change vs veh, SLC12A2 / RFU, IBTK / Fold change vs veh, IBTK / RFU, ESF1 / Fold change vs veh, ESF1 / Fold change vs veh, TMEM50B / RFU, TAOK1 / Fold change vs veh, TAOK1 / RFU, ACBD3 / Fold change vs veh, ACBD3 / RFU, TMA16 / Fold change vs veh, TMA16 / RFU, RWDD3 / Fold change vs veh, RWDD3 / RFU, BCAT1 / Fold change vs veh, BCAT1 / RFU, EDEM3 / Fold change vs veh, EDEM3 / RFU, TMEM33 / Fold change vs veh, TMEM33 / RFU, WDR75 / Fold change vs veh, WDR75 / RFU, AHCTF1 / Fold change vs veh, AHCTF1 / RFU, TFRC / Fold change vs veh, TFRC / RFU, ZDHHC17 / Fold change vs veh, ZDHHC17 / RFU, NOM1 / Fold change vs veh, NOM1 / RFU, ARL8B / Fold change vs veh, ARL8B / RFU, ZBTB11 / Fold change vs veh, ZBTB11 / RFU, TAMM41 / Fold change vs veh, TAMM41 / RFU, KIAA1704 /// LOC100996395 / Fold change vs veh, KIAA1704 /// LOC100996395 / RFU, ING1 / Fold change vs veh, ING1 / RFU, TRMT61B / Fold change vs veh, TRMT61B / RFU, FUBP3 / Fold change vs veh, FUBP3 / RFU, TP53 / Fold change vs veh, TP53 / RFU, TNKS2 / Fold change vs veh, TNKS2 / RFU, ZFP14 / Fold change vs veh, ZFP14 / RFU, ACTR2 / Fold change vs veh, ACTR2 / RFU, PPP3R1 / Fold change vs veh, PPP3R1 / RFU, PIK3R1 / Fold change vs veh, PIK3R1 / RFU, HNRNPA1 / Fold change vs veh, HNRNPA1 / RFU, RNF170 / Fold change vs veh, RNF170 / RFU, ZNF28 / Fold change vs veh, ZNF28 / RFU, RNGTT / Fold change vs veh, RNGTT / RFU, OGT / Fold change vs veh, OGT / RFU, BRD1 / Fold change vs veh, BRD1 / RFU, MARS / Fold change vs veh, MARS / RFU, ZNF655 / Fold change vs veh, ZNF655 / RFU, FAHD1 / Fold change vs veh, FAHD1 / RFU, BDP1 / Fold change vs veh, BDP1 / RFU, LRRCC1 / Fold change vs veh, LRRCC1 / RFU, ARID1A / Fold change vs veh, ARID1A / RFU, ZNF146 / Fold change vs veh, ZNF146 / RFU, ZNF330 / Fold change vs veh, ZNF330 / RFU, GPN3 / Fold change vs veh, GPN3 / RFU, C9orf123 / Fold change vs veh, C9orf123 / RFU, N4BP2L2 / Fold change vs veh, N4BP2L2 / RFU, ARFIP1 / Fold change vs veh, ARFIP1 / RFU, FAM179B / Fold change vs veh, FAM179B / RFU, BCL10 / Fold change vs veh, BCL10 / RFU, UHRF1BP1L / Fold change vs veh, UHRF1BP1L / RFU, BET1 / Fold change vs veh, BET1 / RFU, CNOT2 / Fold change vs veh, CNOT2 / RFU, ZNF268 / Fold change vs veh, ZNF268 / Fold change vs veh, ZNF507 / RFU, DGCR2 / Fold change vs veh, DGCR2 / RFU, WDSUB1 / Fold change vs veh, WDSUB1 / Fold change vs veh, HSP90B1 /// MIR3652 / RFU, ADSS / Fold change vs veh, ADSS / RFU, GK / Fold change vs veh, GK / RFU, ZNF148 / Fold change vs veh, ZNF148 / RFU, TAF9 / Fold change vs veh, TAF9 / RFU, SLC1A5 / Fold change vs veh, SLC1A5 / RFU, SLMO2 / Fold change vs veh, SLMO2 / RFU, ABCC4 / Fold change vs veh, ABCC4 / RFU, LOC101060439 /// RAP1B / Fold change vs veh, LOC101060439 /// RAP1B / RFU, RFX7 / Fold change vs veh, RFX7 / RFU, GTPBP10 / Fold change vs veh, GTPBP10 / RFU, CNEP1R1 / Fold change vs veh, CNEP1R1 / RFU, BIVM-ERCC5 /// ERCC5 / Fold change vs veh, BIVM-ERCC5 /// ERCC5 / RFU, ILF3 / Fold change vs veh, ILF3 / RFU 11762660_at / Fold change /veh 11762660_at / RFU VCAN (11757783_s_at) / Fold change /veh VCAN (11757783_s_at) / RFU DDX43 (11728927_at) / Fold change /veh DDX43 (11728927_at) / RFU KRT8 (11758188_x_at) / Fold change /veh KRT8 (11758188_x_at) / RFU NKD1 (11759106_at) / Fold change /veh NKD1 (11759106_at) / RFU SRD5A1 (11742802_a_at) / Fold change /veh SRD5A1 (11742802_a_at) / RFU TPSAB1 /// TPSB2 (11721975_s_at) / Fold change /veh TPSAB1 /// TPSB2 (11721975_s_at) / RFU GSTM3 (11746129_a_at) / Fold change /veh GSTM3 (11746129_a_at) / RFU IL23R (11737362_x_at) / Fold change /veh IL23R (11737362_x_at) / RFU TMEM51 (11727254_a_at) / Fold change /veh TMEM51 (11727254_a_at) / RFU PIWIL2 (11732686_x_at) / Fold change /veh PIWIL2 (11732686_x_at) / RFU ORM1 (11744905_x_at) / Fold change /veh ORM1 (11744905_x_at) / RFU CCDC152 (11743942_at) / Fold change /veh CCDC152 (11743942_at) / RFU ECM1 (11717891_a_at) / Fold change /veh ECM1 (11717891_a_at) / RFU IL23R (11748794_a_at) / Fold change /veh IL23R (11748794_a_at) / RFU TNFAIP8L3 (11732012_x_at) / Fold change /veh TNFAIP8L3 (11732012_x_at) / RFU MBOAT4 (11741988_at) / Fold change /veh MBOAT4 (11741988_at) / RFU 11764193_at / Fold change /veh 11764193_at / RFU TMEM53 (11763286_at) / Fold change /veh TMEM53 (11763286_at) / RFU MAGEB2 (11727129_at) / Fold change /veh MAGEB2 (11727129_at) / RFU TMEM200A (11744735_a_at) / Fold change /veh TMEM200A (11744735_a_at) / RFU CCDC152 (11751479_a_at) / Fold change /veh CCDC152 (11751479_a_at) / RFU FAM211A (11726209_a_at) / Fold change /veh FAM211A (11726209_a_at) / RFU RGS16 (11746705_a_at) / Fold change /veh RGS16 (11746705_a_at) / RFU VCAN (11755009_s_at) / Fold change /veh VCAN (11755009_s_at) / RFU RHOB (11743442_s_at) / Fold change /veh RHOB (11743442_s_at) / RFU RGS16 (11720943_a_at) / Fold change /veh RGS16 (11720943_a_at) / RFU RGS16 (11720944_at) / Fold change /veh RGS16 (11720944_at) / RFU, VPS4B / Fold change vs veh, VPS4B / RFU, CREB1 / Fold change vs veh, CREB1 / RFU, DNAJC13 / Fold change vs veh, DNAJC13 / RFU, GNAQ / Fold change vs veh, GNAQ / RFU, CDK5R1 / Fold change vs veh, CDK5R1 / RFU, ZRANB3 / Fold change vs veh, ZRANB3 / RFU, CUL4A / Fold change vs veh, CUL4A / RFU, CCNY / Fold change vs veh, CCNY / RFU, UFL1 / Fold change vs veh, UFL1 / RFU, COG3 / Fold change vs veh, COG3 / RFU, DIAPH2 / Fold change vs veh, DIAPH2 / RFU, SKA2 / Fold change vs veh, SKA2 / RFU, AFF3 / Fold change vs veh, AFF3 / RFU, LMF1 / Fold change vs veh, LMF1 / RFU, IPO11 / Fold change vs veh, IPO11 / RFU, DFFB / Fold change vs veh, DFFB / RFU, FOXP1 / Fold change vs veh, FOXP1 / RFU, CARD8 / Fold change vs veh, CARD8 / RFU, STRN3 / Fold change vs veh, STRN3 / RFU, ADK / Fold change vs veh, ADK / RFU, RASSF2 / Fold change vs veh, RASSF2 / RFU, WIPF1 / Fold change vs veh, WIPF1 / RFU, LARP1B / Fold change vs veh, LARP1B / RFU, RASA1 / Fold change vs veh, RASA1 / RFU, RB1 / Fold change vs veh, RB1 / RFU, PPFIA1 / Fold change vs veh, PPFIA1 / RFU, MAT2A / Fold change vs veh, MAT2A / RFU, CCT5 / Fold change vs veh, CCT5 / RFU, WDR92 / Fold change vs veh, WDR92 / RFU, CUX1 / Fold change vs veh, CUX1 / RFU, TTC7A / Fold change vs veh, TTC7A / RFU, TMEM135 / Fold change vs veh, TMEM135 / RFU, DEPTOR / Fold change vs veh, DEPTOR / RFU, CPM / Fold change vs veh, CPM / RFU, DNAJB6 / Fold change vs veh, DNAJB6 / RFU, CACNA2D3 / Fold change vs veh, CACNA2D3 / RFU, DTX4 / Fold change vs veh, DTX4 / RFU, TFCP2 / Fold change vs veh, TFCP2 / RFU, GMCL1 /// GMCL1P1 / Fold change vs veh, GMCL1 /// GMCL1P1 / RFU, AEBP2 / Fold change vs veh, AEBP2 / RFU, SNHG1 /// SNORD22 /// SNORD25 /// SNORD26 /// SNORD27 /// SNORD28 /// SNORD29 /// SNORD31 / Fold change vs veh, SNHG1 /// SNORD22 /// SNORD25 /// SNORD26 /// SNORD27 /// SNORD28 /// SNORD29 /// SNORD31 / Fold change (Aza/veh), C12orf56 (ProbeSet 11735607_a_at) / Fold change (ACY-1035/veh), C12orf56 (ProbeSet 11735607_a_at) / Fold change (Aza/veh), FGFR1OP (ProbeSet 11751329_s_at) / Fold change (ACY-1035/veh), FGFR1OP (ProbeSet 11751329_s_at) / Fold change (Aza/veh), VPS36 (ProbeSet 11739960_a_at) / Fold change (ACY-1035/veh), VPS36 (ProbeSet 11739960_a_at) / RFU SYPL1 (11715823_x_at) / Fold change /veh SYPL1 (11715823_x_at) / RFU IGFBP7 (11715501_s_at) / Fold change /veh IGFBP7 (11715501_s_at) / RFU REEP3 (11722064_at) / Fold change /veh REEP3 (11722064_at) / RFU IGLL1 (11728026_x_at) / Fold change /veh IGLL1 (11728026_x_at): dose or concentration left out as unconfirmed", "settings": "ProbeSet 11720566_at; LIST D"}
{"smiles": "Nc1ccc(-c2cccs2)cc1NC(=O)c1ccc2c(c1)cc(C1CC1)n2CCN1CCOCC1", "note": "[ACY-1035]", "values": [{"measurement": "RFU, BCAT1", "value": 827.78, "unit": "RFU"}]}
